Data: publication PMC3810402 (Journal of the American Chemical Society, 2008)

Experiments:
HCT116-p53+/+ cells = assay: MTS cell viability assay, HCT116; type: cell-based; conditions: single dose, 10 μg/mL, positive control
SW480 cells (mutant p53) = assay: Tumor-killing activity by Trypan blue cell count, SW480; type: cell-based; conditions: added daily, 10 μg/mL

How did the “HCT116 cell viability (MTS)” value (HCT116-p53+/+ cells) turn out when COc1ccc(C2=N[C@@H](c3ccc(Cl)cc3)[C@@H](c3ccc(Cl)cc3)N2C(=O)N2CCNC(=O)C2)c(OC(C)C)c1 [Nutlin-3] was run?
Its value is “a reduction in HCT116 cell viability”.

What about the “effectiveness against SW480” value (SW480 cells (mutant p53)) of the same compound?
Its value is “ineffective”.
